Measurements from article PMC6382835, “A critical evaluation of TRPA1-mediated locomotor behavior in zebrafish as a screening tool for novel anti-nociceptive drug discovery” (Scientific Reports, 2019).

Tests used:
[1] = biological target: T1, mouse TRPA1 (mTRPA1) (Mus musculus, UniProt Q8BLA8); assay: FLIPR calcium signaling assay in mTRPA1-transfected HEK293 cells; assay type: cell-based; details: Schild plot against ASP7663-induced calcium influx, mTRPA1
T1 construct: host or cells: HEK293 (ATCC CRL-1573), transient transfection
Procedure: HEK293 cells (#CRL-1573, ATCC, VA, USA) were cultured in DMEM media (#11995-065, Sigma-Aldrich, MO, USA) with 10% Fetal Bovine Serum (#F0926-500ML, Thermo Fisher, MA, USA). The cells were maintained in a 37 °C incubator with consistent 5% CO2. They were seeded in a clear 6 well flat bottom cell culture plates (#07-200-83, Corning ®, Thermo Fisher) with 500,000 cells/2 ml/well for transfection, in serum-free Opti-MEM (#31985070, Gibco®, Thermo Fisher). These cells were transfected with pcDNA3.1-mTRPA1 (#MR227099, OriGene, MD, USA), pcDNA3.1-zTRPA1a, or pcDNA3.1-zTRPA1b (a gift from Dr. David Prober) using X-tremeGENE^TM 9 (#6365809001, Sigma-Aldrich). After 24 hours, the transfected cells were dislodged with trypsin, resuspended in Opti-MEM, and seeded 25,000 cells/25 µl/well in 384-well black polystyrene microplates (#82051-296, VWR, PA, USA) for testing calcium signaling the following day. Experiments were carried out with the approval of the Institutional Biohazard Committee (#13-013-16).
Twenty-five µl calcium sensitive Fluorescent Imaging Plate Reader (FLIPR) Calcium 6 assay dye (#R8190, Molecular Devices, CA, USA) was added to each well of a 384-well plate containing HEK293 cells transiently expressing mTRPA1, zTRPA1a, and zTRPA1b, respectively. The cells were incubated for an hour prior to the recording of intracellular calcium levels in a FlexStation3 Multi-Mode Microplate Reader (#R8190, Molecular Devices) as previously described. All compounds were diluted in calcium buffer made with 1x HBSS (#14025-092, Thermo Fisher), 20 mM HEPES (#15630-080, Thermo Fisher), and 2.5 mM Probenecid (#P8761, Sigma-Aldrich). For agonist studies, ASP7663 (#5178, Tocris, Bristol, UK) was diluted in 1% DMSO-containing calcium buffer at desired concentrations and was added during the recording. The TRPA1 antagonists HC-030031 (#2896, Tocris), TCS-5861528 (#3938, Tocris), and A-967079 (#4716, Tocris) were diluted in calcium buffer, and 5 µl of 10x solutions were added 10 minutes prior to the recording. The same amount of DMSO (1%) was added to all control groups to maintain similar DMSO levels with the experimental groups. During the assay, the cells were challenged by a 5x ASP7663 solution or 1% DMSO solution at the 20 seconds time point, and both solutions were diluted in calcium buffer. Relative fluorescence units (RFU) were measured for 120 seconds period by the Flexstation. Area under the curve (AUC) was further evaluated from individual calcium influx data (Supplemental Figs 2 and 4) to plot does-response curve of antagonists. For each specific antagonist concentration we plotted Log(dose ratio-1) against the antagonist concentration in a Schild plot. The dose ratio (A’/A) equals the EC50 of the agonist ([…]) in the presence of a concentration of the antagonist (A’) divided by the EC50 of the agonist in the absence of antagonist (A). The x-intercept of the Schild plot was used to identify the antagonist-receptor affinity (pA2).
All data are presented as means ± standard error of the mean (SEM). For our in vitro statistical analysis, AUC of calcium influx (RFU) was measured to plot dose-response curves, which were further analyzed by nonlinear regression analysis. Mean RFU of the first 10 seconds was used as a baseline of the AUC. EC50 values of the dose-response curves were further used to plot Schild curves, and the curves were analyzed with linear regression analysis. For the mice von Frey test, mechanical thresholds were analyzed with two-way ANOVA followed by a Bonferonni test for multiple comparison analysis. For the zebrafish behavior test, the data from the first five seconds following drug administration were excluded, as zebrafish displacement during that period was highly influenced by liquid dispensing. AUC of all curves were measured and analyzed by one-way ANOVA. The post-hoc analysis was conducted with the Tukey’s or Dunnett’s multiple comparisons unless it stated otherwise. […]

[2] = tested on: rat TRPA1; design: method as in PMID 21402443; details: cited from earlier work

T1 sequence (Q8BLA8 whole entry): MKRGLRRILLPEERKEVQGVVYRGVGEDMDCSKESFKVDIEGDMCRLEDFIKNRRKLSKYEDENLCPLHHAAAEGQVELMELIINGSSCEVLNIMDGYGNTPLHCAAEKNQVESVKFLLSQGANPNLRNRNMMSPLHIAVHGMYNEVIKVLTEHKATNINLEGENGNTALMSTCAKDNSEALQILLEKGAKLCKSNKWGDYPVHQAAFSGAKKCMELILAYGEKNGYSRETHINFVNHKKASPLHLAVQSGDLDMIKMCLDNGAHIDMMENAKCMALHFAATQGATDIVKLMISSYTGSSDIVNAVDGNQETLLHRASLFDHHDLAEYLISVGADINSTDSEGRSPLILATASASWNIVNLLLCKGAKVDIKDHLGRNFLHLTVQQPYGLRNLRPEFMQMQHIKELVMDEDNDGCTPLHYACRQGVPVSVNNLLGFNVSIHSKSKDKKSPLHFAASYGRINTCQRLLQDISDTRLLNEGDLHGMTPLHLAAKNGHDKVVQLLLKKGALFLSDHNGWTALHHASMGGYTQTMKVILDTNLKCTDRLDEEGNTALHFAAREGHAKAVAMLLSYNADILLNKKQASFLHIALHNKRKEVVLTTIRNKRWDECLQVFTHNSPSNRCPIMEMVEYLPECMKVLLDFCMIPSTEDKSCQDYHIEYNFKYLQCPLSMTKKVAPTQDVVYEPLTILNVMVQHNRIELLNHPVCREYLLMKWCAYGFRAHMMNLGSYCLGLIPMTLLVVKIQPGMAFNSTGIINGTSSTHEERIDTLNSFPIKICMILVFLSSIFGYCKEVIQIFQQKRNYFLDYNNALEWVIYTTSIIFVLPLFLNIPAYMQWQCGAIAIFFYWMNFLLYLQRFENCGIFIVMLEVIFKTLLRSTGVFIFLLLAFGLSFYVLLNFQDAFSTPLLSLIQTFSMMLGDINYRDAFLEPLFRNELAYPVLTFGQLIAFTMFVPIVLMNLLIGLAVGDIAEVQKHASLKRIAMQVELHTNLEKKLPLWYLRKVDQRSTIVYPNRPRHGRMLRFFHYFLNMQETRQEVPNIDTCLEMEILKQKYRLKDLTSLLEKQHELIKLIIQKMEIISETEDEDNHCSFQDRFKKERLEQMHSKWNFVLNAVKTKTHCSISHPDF

Q: With CCC(=N\O)/C(C)=C/c1ccc(F)cc1 [A-967076] as the compound, how does the pA2 [1] read?
A: 7.0 ± 0.3

Q: What about the “pA2 expressed in µM” value [1] of the same compound?
A: 0.09 µM

Q: And the IC50 [2]?
A: 289 nM

Q: And the “fold stronger than HC-030031” value [2]?
A: about 25 fold

Q: For CCC(C)c1ccc(NC(=O)Cn2cnc3c2c(=O)n(C)c(=O)n3C)cc1 (stereo not drawn) [TCS-5861528], which pA2 [1] is on record?
A: 5.34 ± 0.2

Q: What about the “pA2 expressed in µM” value [1] of the same compound?
A: 4.6 µM
